How the values were obtained:
Oryctolagus cuniculus = species on record: Oryctolagus cuniculus; assay: In vitro smooth muscle contractility using isolated rabbit duodenum; format: functional, Muscle tissue
[1] = Compound was evaluated for the half life period after oral administration in conscious dog.; format: ADME, organism-based, Canis lupus familiaris; conditions: in vivo
[2] = Oral bioavailability in dog (conscious); format: ADME, organism-based, Canis lupus familiaris; conditions: in vivo
Canis familiaris = species on record: Canis familiaris; assay: Effective dose was evaluated for gastrointestinal motor stimulating activity in dog; format: functional; conditions: Canis lupus familiaris

| SMILES | pED50 (Oryctolagus cuniculus) | half-life [1] [h] | bioavailability [2] [%] | ED50 (Canis familiaris) [mg/kg] |
| --- | --- | --- | --- | --- |
| CC[C@H]1NC(=O)[C@H](C)[C@@H](O[C@H]2C[C@@](C)(OC)C[C@H](C)O2)[C@H](C)[C@@H](O[C@@H]2O[C@H](C)C[C@H](NC)[C@H]2O)[C@@]2(C)C[C@@H](C)[C@@H](O2)[C@H](C)[C@@H](O)[C@]1(C)O | 7.25 |  |  |  |
| CC[C@H]1NC(=O)[C@H](C)[C@@H](O[C@H]2C[C@@](C)(OC)C[C@H](C)O2)[C@H](C)[C@@H](O[C@@H]2O[C@H](C)C[C@H](N(C)CC(C)C)[C@H]2O)[C@@]2(C)C[C@@H](C)[C@@H](O2)[C@H](C)[C@@H](O)[C@]1(C)O | 6.88 |  |  |  |
| CC[C@H]1NC(=O)[C@H](C)[C@@H](O[C@H]2C[C@@](C)(OC)C[C@H](C)O2)[C@H](C)[C@@H](O[C@@H]2O[C@H](C)C[C@H](N(C)C)[C@H]2O)[C@@]2(C)C[C@@H](C)[C@@H](O2)[C@H](C)[C@@H](O)[C@]1(C)O | 7.5 | 3.3 | 40 |  |
| CC[C@H]1NC(=O)[C@H](C)[C@@H](O[C@H]2C[C@@](C)(OC)C[C@H](C)O2)[C@H](C)[C@@H](O[C@@H]2O[C@H](C)C[C@H](N(C)CCF)[C@H]2O)[C@@]2(C)C[C@@H](C)[C@@H](O2)[C@H](C)[C@@H](O)[C@]1(C)O | 6.3 |  |  |  |
| CC[C@H]1NC(=O)[C@H](C)[C@@H](O[C@H]2C[C@@](C)(OC)C[C@H](C)O2)[C@H](C)[C@@H](O[C@@H]2O[C@H](C)C[C@H](N(C)C(C)C)[C@H]2O)[C@@]2(C)C[C@@H](C)[C@@H](O2)[C@H](C)[C@@H](O)[C@]1(C)O | 8 | 3.8 | 60.5 | 0.036 |
| CC[C@@H](O)[C@@](C)(O)C1OC(=O)[C@@H](C)[C@H](OC2C[C@@](C)(OC)C[C@H](C)O2)[C@H](C)[C@@H](O[C@@H]2O[C@H](C)C[C@H](N(C)C)[C@H]2O)[C@@H](C)[C@H]2O[C@H]([C@@H]2C)[C@@H]1C (some centres undefined) | 4.35 |  |  |  |
| CC[C@H]1NC(=O)[C@H](C)[C@@H](O[C@H]2C[C@@](C)(OC)C[C@H](C)O2)[C@H](C)[C@@H](O[C@@H]2O[C@H](C)C[C@H](N(C)CC(C)O)[C@H]2O)[C@@]2(C)C[C@@H](C)[C@@H](O2)[C@H](C)[C@@H](O)[C@]1(C)O (some centres undefined) | 6.6 |  |  |  |
| CC[C@H]1NC(=O)[C@H](C)[C@@H](O[C@H]2C[C@@](C)(OC)C[C@H](C)O2)[C@H](C)[C@@H](O[C@@H]2O[C@H](C)C[C@H](N(C)CCO)[C@H]2O)[C@@]2(C)C[C@@H](C)[C@@H](O2)[C@H](C)[C@@H](O)[C@]1(C)O | 6.6 |  |  |  |
| CC[C@H]1OC(=O)[C@H](C)[C@@H](O[C@H]2C[C@@](C)(OC)C[C@H](C)O2)[C@H](C)[C@@H](O[C@@H]2O[C@H](C)C[C@H](N(C)C)[C@H]2O)[C@@]2(C)C[C@@H](C)[C@@H](O2)[C@H](C)[C@@H](O)[C@]1(C)O | 7.8 | 4 | 5 |  |
| CC[C@H]1NC(=O)[C@H](C)[C@@H](O[C@H]2C[C@@](C)(OC)C[C@H](C)O2)[C@H](C)[C@@H](O[C@@H]2O[C@H](C)C[C@H](N(C)CC)[C@H]2O)[C@@]2(C)C[C@@H](C)[C@@H](O2)[C@H](C)[C@@H](O)[C@]1(C)O | 7.11 |  |  |  |
| CC[C@H]1OC(=O)[C@H](C)[C@@H](O[C@H]2C[C@@](C)(OC)C[C@H](C)O2)[C@H](C)[C@@H](O[C@@H]2O[C@H](C)C[C@H](N(C)CC)[C@H]2O)[C@@]2(C)CC(C)=C(O2)[C@H](C)[C@@H](O)[C@H]1C [ALEMCINAL] | 7.22 |  |  |  |
| CC[C@H]1OC(=O)[C@H](C)[C@@H](O[C@H]2C[C@@](C)(OC)[C@@H](O)[C@H](C)O2)[C@H](C)[C@@H](O[C@@H]2O[C@H](C)C[C@H](N(C)C)[C@H]2O)[C@](C)(O)C[C@@H](C)C(=O)[C@H](C)[C@@H](O)[C@]1(C)O [ERYTHROMYCIN] | 5.85 |  |  |  |

Source: ChEMBL document CHEMBL1131560, “Preparation of 9-deoxo-4"-deoxy-6,9-epoxyerythromycin lactams "motilactides": potent and orally active prokinetic agents” (Bioorg Med Chem Lett, 1998)
